Results from the supplement of paper PMC9663587.

Experiments:
MDAMB361 = assay: area over the GR curve, 72 h; higher = more effect;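 further: Dye Drop or Deep Dye Drop imaging of viable cells in 384-well plates (Hoechst nuclei, LIVE/DEAD dye), nine half-log doses, GR normalized to DMSO controls and time-zero plates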
HCC1937 = assay: area over the GR curve, 72 h; higher = more effect;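 further: Dye Drop or Deep Dye Drop imaging of viable cells in 384-well plates (Hoechst nuclei, LIVE/DEAD dye), nine half-log doses, GR normalized to DMSO controls and time-zero plates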
SUM159 = assay: area over the GR curve, 72 h; higher = more effect;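 further: Dye Drop or Deep Dye Drop imaging of viable cells in 384-well plates (Hoechst nuclei, LIVE/DEAD dye), nine half-log doses, GR normalized to DMSO controls and time-zero plates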
EVSAT = assay: area over the GR curve, 72 h; higher = more effect;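 further: Dye Drop or Deep Dye Drop imaging of viable cells in 384-well plates (Hoechst nuclei, LIVE/DEAD dye), nine half-log doses, GR normalized to DMSO controls and time-zero plates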
ZR751 = assay: area over the GR curve, 72 h; higher = more effect
HS578T = assay: GRmax, 72 h; higher = less effect;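 further: breast cell lines in 384-well plates, nine doses across a 10^4 range, Dye Drop imaging of viable cells vs DMSO and time-zero plates, GR 0 means no net growth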
HCC1569 = assay: GRmax, 72 h; higher = less effect;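 further: breast cell lines in 384-well plates, nine doses across a 10^4 range, Dye Drop imaging of viable cells vs DMSO and time-zero plates, GR 0 means no net growth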
MGH312 = assay: GRmax, 72 h; higher = less effect;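 further: breast cell lines in 384-well plates, nine doses across a 10^4 range, Dye Drop imaging of viable cells vs DMSO and time-zero plates, GR 0 means no net growth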
SUM52PE = assay: GRmax, 72 h; higher = less effect;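 further: breast cell lines in 384-well plates, nine doses across a 10^4 range, Dye Drop imaging of viable cells vs DMSO and time-zero plates, GR 0 means no net growth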
PDX1258 = assay: GRmax, 72 h; higher = less effect
SUM229PE = assay: GRmax, 72 h; higher = less effect
MDAMB453 = assay: GRmax, 72 h; higher = less effect
SUM149 = assay: GRmax, 72 h; higher = less effect

SMILES | area over the GR curve (MDAMB361) | area over the GR curve (HCC1937) | area over the GR curve (SUM159) | area over the GR curve (EVSAT) | area over the GR curve (ZR751) | GRmax, 72 h (HS578T) | GRmax, 72 h (HCC1569) | GRmax, 72 h (MGH312) | GRmax, 72 h (SUM52PE) | GRmax, 72 h (PDX1258) | GRmax, 72 h (SUM229PE) | GRmax, 72 h (MDAMB453) | GRmax, 72 h (SUM149)
CCC(=O)Nc1ccc(C(=O)Nc2ccc(Nc3ncc4c(n3)N(C)c3ccc(C)cc3C(=O)N4C)cc2)cc1 [FMF-03-145-1] | 0.323 GR | 0.464 GR | 0.476 GR | 1 GR | 0.391 GR | -0.183 GR | -0.125 GR | -0.365 GR | 0.0118 GR | -0.267 GR | -0.209 GR | 0.0994 GR | -0.101 GR
COc1cc(N2CCN(C)CC2)ccc1Nc1ncc2c(n1)N(C)c1ccccc1C(=O)N2CC(F)(F)F [FMF-03-146-1] | 0.126 GR | 0.0547 GR | 0.0317 GR | -0.0034 GR | 0.0552 GR | 0.944 GR | 1.03 GR | 0.866 GR | 1.04 GR | 1.2 GR | 0.999 GR | 0.803 GR | 0.971 GR
CN1CC[C@H](c2c(O)cc(O)c3c(=O)cc(-c4ccccc4Cl)oc23)[C@H](O)C1 [Flavopiridol] (max 1 µM) | 0.397 GR | 0.238 GR | 0.256 GR | 0.157 GR | 0.152 GR | -0.256 GR | -0.177 GR | -0.945 GR | -0.193 GR | -0.507 GR | -0.181 GR | -0.188 GR | -0.605 GR
CC(C)n1nc(-c2ccc3oc(N)nc3c2)c2c(N)ncnc21 [INK128/MLN0128] (max 3.162 µM) | 1.1 GR | 0.369 GR | 0.356 GR | 0.691 GR | 0.679 GR | -0.0708 GR | 0.088 GR | -0.89 GR | -0.161 GR | -0.138 GR | 0.219 GR | -0.468 GR | 0.268 GR
CC(C)NC[C@@H](C(=O)N1CCN(c2ncnc3c2[C@H](C)C[C@H]3O)CC1)c1ccc(Cl)cc1 [Ipatasertib/GDC0068] (max 10 µM) | 0.453 GR | 0.156 GR | 0.0758 GR | 0.463 GR | 0.0518 GR | 0.442 GR | 0.234 GR | -0.936 GR | 0.271 GR | 0.399 GR | 0.499 GR | -0.155 GR | 0.291 GR
CN(C)C(=O)c1cc2cnc(Nc3ccc(N4CCNCC4)cn3)nc2n1C1CCCC1 [LEE011/Ribociclib] (max 10 µM) | 0.784 GR | 0.0156 GR | 0.244 GR | 0.12 GR | 0.258 GR | 0.376 GR | 0.897 GR | 0.894 GR | 0.528 GR | 1.08 GR | 0.576 GR | 0.189 GR | 0.605 GR
CCNC(=O)c1noc(-c2cc(C(C)C)c(O)cc2O)c1-c1ccc(CN2CCOCC2)cc1 [Luminespib/NVP-AUY922] (max 1 µM) | 0.978 GR | 0.548 GR | 0.53 GR | 0.68 GR | 0.362 GR | -0.114 GR | -0.0081 GR | -0.685 GR | -0.0956 GR | -0.29 GR | -0.293 GR | -0.499 GR | -0.392 GR
CCOc1cc2ncc(C#N)c(Nc3ccc(OCc4ccccn4)c(Cl)c3)c2cc1NC(=O)/C=C/CN(C)C [Neratinib/HKI272] (max 3.162 µM) | 0.425 GR | 0.171 GR | 0.101 GR | 0.0683 GR | 0.0964 GR | -0.161 GR | 0.117 GR | -0.278 GR | 0.491 GR | 0.203 GR | 0.205 GR | -0.322 GR | 0.155 GR
O=C(c1cc(Cc2n[nH]c(=O)c3ccccc23)ccc1F)N1CCN(C(=O)C2CC2)CC1 [Olaparib/AZD2281] (max 10 µM) | 0.0967 GR | 0.0584 GR | 0.0296 GR | 0.0599 GR | 0.0567 GR | 0.444 GR | 0.565 GR | 0.537 GR | 0.88 GR | 0.577 GR | 0.75 GR | -0.0358 GR | 0.205 GR
CC(=O)O[C@H]1C(=O)[C@@]2(C)[C@H]([C@H](OC(=O)c3ccccc3)[C@]3(O)C[C@H](OC(=O)[C@H](O)[C@@H](NC(=O)c4ccccc4)c4ccccc4)C(C)=C1C3(C)C)[C@]1(OC(C)=O)CO[C@@H]1C[C@@H]2O [Paclitaxel] (max 1 µM) | 0.974 GR | 0.658 GR | 0.65 GR | 0.844 GR | 0.511 GR | -0.375 GR | 0.0183 GR | -0.508 GR | -0.401 GR | -0.0818 GR | -0.377 GR | 0.0356 GR | -0.257 GR
CS(=O)(=O)N1CCN(Cc2cc3nc(-c4cccc5[nH]ncc45)nc(N4CCOCC4)c3s2)CC1 [Pictilisib/GDC0941] (max 10 µM) | 0.716 GR | 0.211 GR | 0.129 GR | 0.387 GR | 0.324 GR | 0.0345 GR | -0.054 GR | -0.923 GR | -0.205 GR | 0.0518 GR | 0.0426 GR | -0.374 GR | 0.341 GR
O=C1NC(=NCc2cccs2)SC1=Cc1ccc2ncccc2c1 [R0-3306] (max 10 µM) | 0.0965 GR | 0.143 GR | 0.0665 GR | 0.115 GR | 0.0473 GR | -0.0503 GR | -0.166 GR | -0.249 GR | 0.114 GR | -0.274 GR | -0.07 GR | 0.0452 GR | -0.171 GR
CNCc1ccc(-c2[nH]c3cc(F)cc4c3c2CCNC4=O)cc1 [Rucaparib] (max 10 µM) | 0.336 GR | 0.0989 GR | 0.0948 GR | 0.0455 GR | 0.0837 GR | 0.683 GR | 0.75 GR | 0.569 GR | 0.961 GR | 0.564 GR | 0.888 GR | 0.18 GR | 0.559 GR
CC1(N)CCN(c2cnc(-c3cccc(Cl)c3Cl)c(N)n2)CC1 [SHP099] (max 10 µM) | 0.13 GR | 0.0653 GR | 0.0503 GR | -0.0008 GR | 0.0364 GR | 0.632 GR | 0.92 GR | 0.976 GR | 0.937 GR | 1.09 GR | 0.936 GR | 0.726 GR | 0.866 GR
CN1CCN(CCOc2cc(OC3CCOCC3)c3c(Nc4c(Cl)ccc5c4OCO5)ncnc3c2)CC1 [Saracatinib/AZD0530] (max 10 µM) | 0.406 GR | 0.039 GR | 0.0365 GR | 0.203 GR | 0.163 GR | 0.189 GR | 0.161 GR | -0.401 GR | 0.486 GR | 0.184 GR | 0.236 GR | 0.393 GR | 0.188 GR
Cc1cc(C(C)Nc2ccccc2)c2nc(N3CCOCC3)cc(=O)n2c1 (stereo not drawn) [TGX221] (max 10 µM) | -0.0911 GR | 0.0193 GR | -0.0235 GR | 0.254 GR | 0.354 GR | 0.709 GR | 0.774 GR | -0.158 GR | 0.755 GR | 0.997 GR | 0.994 GR | 0.828 GR | 1.02 GR
CN(C)C/C=C/C(=O)Nc1ccc(C(=O)Nc2cccc(Nc3ncc(Cl)c(-c4c[nH]c5ccccc45)n3)c2)cc1 [THZ1] (max 1 µM) | 0.746 GR | 0.348 GR | 0.161 GR | 0.251 GR | 0.162 GR | -0.371 GR | -0.325 GR | -0.939 GR | -0.437 GR | -0.716 GR | -0.297 GR | -0.256 GR | -0.52 GR
CN(C)C/C=C/C(=O)Nc1ccc(C(=O)N2CCC[C@@H](Nc3ncc(Cl)c(-c4c[nH]c5ccccc45)n3)C2)cc1 [THZ531] (max 1 µM) | 0.682 GR | 0.176 GR | 0.0413 GR | 0.0912 GR | 0.124 GR | -0.246 GR | -0.155 GR | -0.947 GR | -0.17 GR | -0.575 GR | -0.146 GR | -0.294 GR | -0.509 GR
CN(C)C/C=C/C(=O)Nc1ccc(C(=O)Nc2cccc(Nc3cc(-c4c[nH]c5ccccc45)ncn3)c2)cc1 [THZ-P1-2] (max 10 µM) | 0.789 GR | 0.288 GR | 0.127 GR | 0.127 GR | 0.0386 GR | 0.92 GR | -0.359 GR | -0.983 GR | -0.598 GR | -0.891 GR | -0.655 GR | -0.706 GR | -0.589 GR
Cc1nc(-c2cn3c(n2)-c2ccc(-c4cnn(C(C)(C)C(N)=O)c4)cc2OCC3)n(C(C)C)n1 [Taselisib/GDC0032] (max 10 µM) | 1.41 GR | 0.277 GR | 0.399 GR | 0.412 GR | 0.393 GR | -0.0179 GR | -0.121 GR | -0.927 GR | -0.0187 GR | 0.106 GR | -0.0501 GR | -0.635 GR | -0.224 GR
O=C1NC(=O)[C@@H](c2cn3c4c(cccc24)CCC3)[C@@H]1c1c[nH]c2ccccc12 [Tivantinib/ARQ197] (max 10 µM) | 0.514 GR | 0.29 GR | 0.403 GR | 0.443 GR | 0.255 GR | -0.32 GR | -0.11 GR | -0.537 GR | -0.354 GR | -0.209 GR | -0.423 GR | -0.0719 GR | -0.224 GR
Nc1ccc(-c2ccc3ncc4ccc(=O)n(-c5cccc(C(F)(F)F)c5)c4c3c2)cn1 [Torin2] (max 1 µM) | 0.869 GR | 0.291 GR | 0.295 GR | 0.511 GR | 0.438 GR | -0.217 GR | -0.0827 GR | -0.772 GR | -0.351 GR | -0.207 GR | -0.0085 GR | -0.814 GR | 0.0058 GR
CC[C@@H]1C(=O)N(C)c2cnc(Nc3ccc(C(=O)N[C@H]4CC[C@H](N5CCN(CC6CC6)CC5)CC4)cc3OC)nc2N1C(C)C [Volasertib/BI6727] (max 1 µM) | 0.793 GR | 0.497 GR | 0.392 GR | 0.666 GR | 0.263 GR | -0.312 GR | 0.0147 GR | -0.675 GR | -0.409 GR | -0.232 GR | -0.356 GR | -0.201 GR | -0.297 GR
O=C(CCCCCCC(=O)Nc1ccccc1)NO [Vorinostat] (max 10 µM) | 0.457 GR | 0.193 GR | 0.148 GR | 0.19 GR | 0.0343 GR | -0.169 GR | -0.294 GR | -0.945 GR | 0.0882 GR | -0.0232 GR | -0.0664 GR | -0.608 GR | -0.0704 GR
C=CC(=O)Nc1ccc(C(=O)Nc2[nH]nc3c2CN(C(=O)N[C@H](CN(C)C)c2ccccc2)C3(C)C)cc1 [YKL-5-124] (max 10 µM) | 1.14 GR | 0.861 GR | 0.857 GR | 0.911 GR | 0.717 GR | -0.445 GR | -0.164 GR | -0.919 GR | 0.0084 GR | -0.587 GR | -0.0428 GR | -0.503 GR | -0.104 GR
CN1CCN(C(=O)c2ccc3cc(CCNc4ncnc5ccc(C#N)cc45)ccc3c2)CC1 [senexin b] (max 10 µM) | 0.323 GR | 0.286 GR | 0.0855 GR | 0.0803 GR | 0.05 GR | 0.765 GR | 0.514 GR | 0.168 GR | 0.742 GR | 0.603 GR | 0.696 GR | 0.148 GR | 0.747 GR
